Test results as given in US11174251B2, “Compositions and methods for inhibition of the JAK pathway” (Rigel Pharmaceuticals, Inc., priority 2010, dated 2021).
Where a name gives a salt, the structure may show the parent alone.

Biological target: T1, JAK3 (Homo sapiens, UniProt P52333)
T1 construct: The Ramos B-cell line was acquired from ATCC (ATCC Catalog No. CRL-1596); host or cells: Ramos B-cell line (human)
T1 sequence (P52333 1-1124): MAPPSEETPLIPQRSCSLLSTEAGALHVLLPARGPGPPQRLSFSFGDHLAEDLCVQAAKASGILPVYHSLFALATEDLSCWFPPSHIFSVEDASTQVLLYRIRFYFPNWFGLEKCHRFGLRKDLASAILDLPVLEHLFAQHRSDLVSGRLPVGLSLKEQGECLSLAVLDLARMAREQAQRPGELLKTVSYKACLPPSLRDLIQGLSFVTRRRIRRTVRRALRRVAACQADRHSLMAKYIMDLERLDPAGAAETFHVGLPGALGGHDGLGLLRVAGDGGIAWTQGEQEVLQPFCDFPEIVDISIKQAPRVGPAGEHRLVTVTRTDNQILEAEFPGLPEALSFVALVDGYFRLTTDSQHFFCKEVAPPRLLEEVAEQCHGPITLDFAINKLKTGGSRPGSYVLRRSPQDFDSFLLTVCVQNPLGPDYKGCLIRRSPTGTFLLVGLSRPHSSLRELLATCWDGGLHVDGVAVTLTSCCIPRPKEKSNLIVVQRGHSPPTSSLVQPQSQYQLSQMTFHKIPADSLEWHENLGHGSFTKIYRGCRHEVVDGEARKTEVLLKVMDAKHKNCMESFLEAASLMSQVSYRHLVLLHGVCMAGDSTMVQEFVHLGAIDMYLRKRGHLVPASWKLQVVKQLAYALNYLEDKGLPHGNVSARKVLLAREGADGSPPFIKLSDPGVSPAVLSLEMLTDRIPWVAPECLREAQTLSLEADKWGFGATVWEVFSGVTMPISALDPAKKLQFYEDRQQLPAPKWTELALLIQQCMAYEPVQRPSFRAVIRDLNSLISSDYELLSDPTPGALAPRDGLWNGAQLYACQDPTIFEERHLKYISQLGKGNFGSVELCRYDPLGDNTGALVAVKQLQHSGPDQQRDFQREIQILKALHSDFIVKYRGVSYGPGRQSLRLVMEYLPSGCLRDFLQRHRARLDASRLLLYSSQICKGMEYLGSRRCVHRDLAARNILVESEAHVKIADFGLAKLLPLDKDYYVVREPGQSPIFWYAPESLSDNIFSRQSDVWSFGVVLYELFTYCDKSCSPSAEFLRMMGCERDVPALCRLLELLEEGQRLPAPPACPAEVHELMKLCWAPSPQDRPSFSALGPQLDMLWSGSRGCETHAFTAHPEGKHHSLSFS
Test: Assay for CD23 expression on Ramos B-cells stimulated by IL-4 (Table IV: ability to inhibit JAK3 activity)
Format: cell-based
Details: tested under conditions described in Example 3 (so in the source)
Procedure, shortened: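 Human Ramos B cells in RPMI with 5% serum, pre-incubated 1 h at 37 °C with compound or DMSO, then stimulated with IL-4 (final 50 units/mL) for 20–24 h. Surface CD23 upregulation measured by FACS staining as readout of JAK1/JAK3–Stat-6 signalling.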

Structure (SMILES) | IC50
COc1ccc(Nc2ncc(F)c(Nc3cc(F)c4oc(=O)[nH]c4c3)n2)cc1C [Compound I-180, 5-(2-(4-methoxy-3-methylphenylamino)-5-fluoropyrimidin-4-ylamino)-7-fluorobenzo[d]oxazol-2(3H)-one trifluoroacetate salt] | < 500 nM
COc1cc(Nc2ncc(F)c(Nc3ccc4oc(=O)[nH]c4c3)n2)cc(C)c1F [Compound I-181, 5-(2-(4-fluoro-3-methoxy-5-methylphenylamino)-5-fluoropyrimidin-4-ylamino)benzo[d]oxazol-2(3H)-one trifluoroacetate salt] | < 500 nM
COc1cc(Nc2ncc(F)c(Nc3ccc4oc(=O)[nH]c4c3)n2)cc(C)c1OC [Compound I-182, 5-(2-(3,4-dimethoxy-5-methylphenylamino)-5-fluoropyrimidin-4-ylamino)benzo[d]oxazol-2(3H)-one trifluoroacetate salt] | < 500 nM
COc1cc(Nc2ncc(F)c(Nc3cc(C)c4oc(=O)[nH]c4c3)n2)cc(C)c1OC [Compound I-183, 5-(2-(3,4-dimethoxy-5-methylphenylamino)-5-fluoropyrimidin-4-ylamino)-7-methylbenzo[d]oxazol-2(3H)-one trifluoroacetate salt] | < 500 nM
COc1cc(Nc2ncc(F)c(Nc3cc(F)c4oc(=O)[nH]c4c3)n2)cc(C)c1OC [Compound I-184, 5-(2-(3,4-dimethoxy-5-methylphenylamino)-5-fluoropyrimidin-4-ylamino)-7-fluorobenzo[d]oxazol-2(3H)-one trifluoroacetate salt] | < 500 nM
COc1cc(Nc2ncc(F)c(Nc3ccc4oc(=O)[nH]c4c3)n2)cc(Cl)c1OC [Compound I-185, 5-(2-(3-chloro-4,5-dimethoxyphenylamino)-5-fluoropyrimidin-4-ylamino)benzo[d]oxazol-2(3H)-one trifluoroacetate salt] | < 500 nM
Cc1cc(C)cc(Nc2ncc(F)c(Nc3cc(F)c4oc(=O)[nH]c4c3)n2)c1 [Compound I-187, 5-(2-(3,5-dimethylphenylamino)-5-fluoropyrimidin-4-ylamino)-7-fluorobenzo[d]oxazol-2(3H)-one trifluoroacetate salt] | < 500 nM
Cc1cc(Nc2ncc(F)c(Nc3cc(F)c4oc(=O)[nH]c4c3)n2)cc(C)c1C [Compound I-188, 5-(2-(3,4,5-trimethylphenylamino)-5-fluoropyrimidin-4-ylamino)-7-fluorobenzo[d]oxazol-2(3H)-one trifluoroacetate salt] | < 500 nM
Cc1cc(Nc2ncc(F)c(Nc3cc(F)c4oc(=O)[nH]c4c3)n2)cc(C)c1F [Compound I-189, 5-(2-(4-fluoro-3,5-dimethylphenylamino)-5-fluoropyrimidin-4-ylamino)-7-fluorobenzo[d]oxazol-2(3H)-one trifluoroacetate salt] | < 500 nM
COc1cc(Nc2ncc(F)c(Nc3cc(C)c4oc(=O)[nH]c4c3)n2)cc(C)c1F [Compound I-190, 5-(2-(4-fluoro-3-methoxy-5-methylphenylamino)-5-fluoropyrimidin-4-ylamino)-7-methylbenzo[d]oxazol-2(3H)-one trifluoroacetate salt] | 500 to 5000 nM
COc1cc(Nc2ncc(F)c(Nc3cc(F)c4oc(=O)[nH]c4c3)n2)cc(C)c1F [Compound I-191, 5-(2-(4-fluoro-3-methoxy-5-methylphenylamino)-5-fluoropyrimidin-4-ylamino)-7-fluorobenzo[d]oxazol-2(3H)-one trifluoroacetate salt] | < 500 nM
COc1c(F)ccc(Nc2ncc(F)c(Nc3cc(C)c4oc(=O)[nH]c4c3)n2)c1F [Compound I-192, 5-(2-(2,4-difluoro-3-methoxyphenylamino)-5-fluoropyrimidin-4-ylamino)-7-methylbenzo[d]oxazol-2(3H)-one trifluoroacetate salt] | 500 to 5000 nM
COc1c(F)ccc(Nc2ncc(F)c(Nc3cc(F)c4oc(=O)[nH]c4c3)n2)c1F [Compound I-193, 5-(2-(2,4-difluoro-3-methoxyphenylamino)-5-fluoropyrimidin-4-ylamino)-7-fluorobenzo[d]oxazol-2(3H)-one trifluoroacetate salt] | 500 to 5000 nM
COc1cc(Nc2ncc(F)c(Nc3ccc4oc(=O)[nH]c4c3)n2)cc(OC)c1C [Compound I-194, 5-(2-(3,5-dimethoxy-4-methylphenylamino)-5-fluoropyrimidin-4-ylamino)benzo[d]oxazol-2(3H)-one trifluoroacetate salt] | 500 to 5000 nM

Other lines, results leading:

IC50 | Structure (SMILES)
< 500 nM | COc1cc(Nc2ncc(F)c(Nc3ccc4oc(=O)[nH]c4c3)n2)cc(C)c1C [Compound I-195, 5-(2-(3-methoxy-4,5-dimethylphenylamino)-5-fluoropyrimidin-4-ylamino)benzo[d]oxazol-2(3H)-one trifluoroacetate salt]
< 500 nM | COc1ccc(Nc2ncc(F)c(Nc3ccc4oc(=O)[nH]c4c3)n2)cc1 [Compound I-196, 5-(2-(4-methoxyphenylamino)-5-fluoropyrimidin-4-ylamino)benzo[d]oxazol-2(3H)-one formate salt]
< 500 nM | COc1ccc(Nc2ncc(F)c(Nc3ccc4oc(=O)[nH]c4c3)n2)cc1C(F)F [Compound I-197, 5-(2-(3-(difluoromethyl)-4-methoxyphenylamino)-5-fluoropyrimidin-4-ylamino)benzo[d]oxazol-2(3H)-one formate salt]
500 to 5000 nM | CC(C)c1ccc(Nc2ncc(F)c(Nc3ccc4oc(=O)[nH]c4c3)n2)cc1 [Compound I-200, 5-(2-(4-isopropylphenylamino)-5-fluoropyrimidin-4-ylamino)benzo[d]oxazol-2(3H)-one trifluoroacetate salt]
500 to 5000 nM | CC(C)(C)c1ccc(Nc2ncc(F)c(Nc3ccc4oc(=O)[nH]c4c3)n2)cc1 [Compound I-201, 5-(2-(4-tert-butylphenylamino)-5-fluoropyrimidin-4-ylamino)benzo[d]oxazol-2(3H)-one trifluoroacetate salt]
500 to 5000 nM | Cc1ccc(Nc2ncc(F)c(Nc3ccc4oc(=O)[nH]c4c3)n2)cc1 [Compound I-202, 5-(2-(p-tolylamino)-5-fluoropyrimidin-4-ylamino)benzo[d]oxazol-2(3H)-one trifluoroacetate salt]
< 500 nM | Cc1ccc(Nc2ncc(F)c(Nc3ccc4oc(=O)[nH]c4c3)n2)cc1-c1ccncc1 [Compound I-203, 5-(2-(4-methyl-3-(pyridin-4-yl)phenylamino)-5-fluoropyrimidin-4-ylamino)benzo[d]oxazol-2(3H)-one]
< 500 nM | Cc1ccc(Nc2ncc(F)c(Nc3ccc4oc(=O)[nH]c4c3)n2)cc1-c1cccnc1 [Compound I-204, 5-(2-(4-methyl-3-(pyridin-3-yl)phenylamino)-5-fluoropyrimidin-4-ylamino)benzo[d]oxazol-2(3H)-one]
< 500 nM | O=c1[nH]c2cc(Nc3nc(Nc4ccc(F)c(-c5ccncc5)c4)ncc3F)ccc2o1 [Compound I-205, 5-(2-(4-fluoro-3-(pyridin-4-yl)phenylamino)-5-fluoropyrimidin-4-ylamino)benzo[d]oxazol-2(3H)-one]
< 500 nM | O=c1[nH]c2cc(Nc3nc(Nc4ccc(F)c(-c5cccnc5)c4)ncc3F)ccc2o1 [Compound I-206, 5-(2-(4-fluoro-3-(pyridin-3-yl)phenylamino)-5-fluoropyrimidin-4-ylamino)benzo[d]oxazol-2(3H)-one]
> 10000 nM | COc1cc(Nc2ncc(F)c(Nc3ccc4oc(=O)[nH]c4c3)n2)ccc1-c1ccncc1 [Compound I-207, 5-(2-(3-methoxy-4-(pyridin-4-yl)phenylamino)-5-fluoropyrimidin-4-ylamino)benzo[d]oxazol-2(3H)-one formate salt]
< 500 nM | COc1ccc(Nc2ncc(F)c(Nc3ccc4oc(=O)[nH]c4c3)n2)cc1-c1ccncc1 [Compound I-208, 5-(2-(4-methoxy-3-(pyridin-4-yl)phenylamino)-5-fluoropyrimidin-4-ylamino)benzo[d]oxazol-2(3H)-one formate salt]
< 500 nM | COc1ccc(Nc2ncc(F)c(Nc3ccc4oc(=O)[nH]c4c3)n2)cc1-c1cccnc1 [Compound I-209, 5-(2-(4-methoxy-3-(pyridin-3-yl)phenylamino)-5-fluoropyrimidin-4-ylamino)benzo[d]oxazol-2(3H)-one formate salt]
